Measured values from ChEMBL document CHEMBL1201862, “PubChem BioAssay data set” (2004).
Values belong to the compound of their own block, whether it stands above or below them. Calls of active or inactive are those of the source. Unless noted, the calls are words filed in the database; no cut-off is given here.

Key:
Keap1/Nrf2 = Keap1/Nrf2 (Homo sapiens, UniProt Q14145); assay: Keap1-Nrf2 protein-protein interaction inhibitors, dose response, biochemical, fluorescence polarization, cherry-picked samples (AID 588683)
[1] = target: T1, Neuropeptide Y receptor type 1 (Homo sapiens, UniProt P25929); assay type: functional;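 further: HEK293 cells with a CNG channel challenged with NPY then isoproterenol; potency as antagonist that reverses NPY suppression of cAMP signal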
T1 sequence (P25929 whole entry): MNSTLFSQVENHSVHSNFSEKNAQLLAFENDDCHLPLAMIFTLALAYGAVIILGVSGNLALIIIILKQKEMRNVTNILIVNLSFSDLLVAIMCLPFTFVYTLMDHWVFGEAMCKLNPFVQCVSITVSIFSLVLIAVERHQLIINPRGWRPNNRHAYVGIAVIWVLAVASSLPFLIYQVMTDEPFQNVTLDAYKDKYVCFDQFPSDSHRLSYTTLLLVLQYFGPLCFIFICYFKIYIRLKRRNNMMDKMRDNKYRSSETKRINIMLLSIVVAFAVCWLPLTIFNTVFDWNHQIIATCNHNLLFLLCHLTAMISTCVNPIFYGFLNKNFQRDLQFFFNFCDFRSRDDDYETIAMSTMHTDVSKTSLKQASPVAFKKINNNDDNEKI

[2] = target: T2, Neuropeptide Y receptor type 2 (Homo sapiens, UniProt P49146); assay type: functional, cell-based;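 further: HEK293 cells expressing the receptor and a CNG channel; stimulus was NPY near EC95 followed by isoproterenol to raise cAMP; antagonist potency measured as restoring cAMP signal that NPY suppresses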
T2 sequence (P49146 whole entry): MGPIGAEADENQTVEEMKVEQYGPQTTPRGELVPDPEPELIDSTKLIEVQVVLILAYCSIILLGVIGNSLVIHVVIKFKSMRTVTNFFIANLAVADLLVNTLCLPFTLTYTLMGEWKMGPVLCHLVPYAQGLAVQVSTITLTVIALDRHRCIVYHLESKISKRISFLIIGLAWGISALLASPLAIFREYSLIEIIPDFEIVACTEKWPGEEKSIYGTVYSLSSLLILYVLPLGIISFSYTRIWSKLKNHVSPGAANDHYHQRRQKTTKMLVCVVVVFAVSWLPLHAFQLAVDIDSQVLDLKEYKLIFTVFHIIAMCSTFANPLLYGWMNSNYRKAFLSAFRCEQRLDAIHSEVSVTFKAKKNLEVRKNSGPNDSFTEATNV

Cysteine protease ATG4B = target: T3, Cysteine protease ATG4B (Homo sapiens, UniProt Q9Y4P1); assay: ATG4B protease inhibitors, dose response, biochemical, fluorescence, set 2 (AID 588584); assay type: functional
T3 sequence (Q9Y4P1 whole entry): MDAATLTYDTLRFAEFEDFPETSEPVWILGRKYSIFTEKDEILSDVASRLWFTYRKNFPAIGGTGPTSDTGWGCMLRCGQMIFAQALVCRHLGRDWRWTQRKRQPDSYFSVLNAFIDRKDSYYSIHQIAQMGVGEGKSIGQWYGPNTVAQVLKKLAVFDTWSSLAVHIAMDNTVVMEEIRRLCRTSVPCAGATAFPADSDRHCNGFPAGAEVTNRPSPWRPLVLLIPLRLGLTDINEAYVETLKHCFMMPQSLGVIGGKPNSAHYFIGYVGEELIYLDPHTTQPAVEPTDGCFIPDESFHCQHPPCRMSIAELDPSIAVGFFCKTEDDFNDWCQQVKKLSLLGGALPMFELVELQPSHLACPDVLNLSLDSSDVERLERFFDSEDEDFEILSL

Phospholipase A2 = Phospholipase A2 (Homo sapiens, UniProt P04054); assay: PLA2 enzyme inhibitors, dose response, counter-screen for ATG4B inhibitor project, biochemical, set 2 (AID 588586); assay type: functional
HEK293 [3] = assay: cytotoxicity in HEK293T NF-kB-Luc cells, SAR follow-up, cytotoxicity control for NF-kB activator project, cell-based, resazurin fluorescence (AID 493251); assay type: functional; conditions: Homo sapiens
HEK293 [4] = assay: SAR Analysis of small molecule inhibitors of T-cell specific antigen receptor-induced NF-kB activation in a HEK-293T cell line using a luminescence assay - Set 2. [Related pubchem assays (depositor defined):AID435003, AID435012, AID489026]; assay type: functional, cell-based; conditions: Homo sapiens
Jurkat = assay: SAR Analysis of small molecule inhibitors of T-cell specific antigen receptor-induced NF-kB activation in a Jurkat cell line using a luminescence assay - Set 2. [Related pubchem assays (depositor defined):AID435003, AID435012, AID465]; assay type: functional, cell-based; conditions: Homo sapiens
Candida albicans [5] = assay: Candida albicans growth inhibition, agent alone, dose response, counter-screen for reversing antifungal drug resistance, CaCi-2 strain, no fluconazole, dry powder, set 4 (AID 488932); assay type: functional, organism-based
Candida albicans [6] = assay: Candida albicans growth inhibition, compound alone, dose response, counter-screen for antifungal drug resistance project, CaCi-2 strain, Alamar Blue, dry powder, set 2 (AID 488893); assay type: functional, organism-based
Candida albicans [7] = assay: growth inhibition of resistant C. albicans, dose response, CaCi-8 strain, fluconazole, dry powder, set 4 (AID 488950); assay type: functional, organism-based

Sequence of Phospholipase A2 (P04054 whole entry): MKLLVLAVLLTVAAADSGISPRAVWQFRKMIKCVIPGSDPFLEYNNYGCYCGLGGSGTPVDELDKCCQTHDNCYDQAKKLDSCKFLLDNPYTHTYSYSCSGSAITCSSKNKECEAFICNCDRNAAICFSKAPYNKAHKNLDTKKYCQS
Sequence of Keap1/Nrf2 (Q16236 whole entry): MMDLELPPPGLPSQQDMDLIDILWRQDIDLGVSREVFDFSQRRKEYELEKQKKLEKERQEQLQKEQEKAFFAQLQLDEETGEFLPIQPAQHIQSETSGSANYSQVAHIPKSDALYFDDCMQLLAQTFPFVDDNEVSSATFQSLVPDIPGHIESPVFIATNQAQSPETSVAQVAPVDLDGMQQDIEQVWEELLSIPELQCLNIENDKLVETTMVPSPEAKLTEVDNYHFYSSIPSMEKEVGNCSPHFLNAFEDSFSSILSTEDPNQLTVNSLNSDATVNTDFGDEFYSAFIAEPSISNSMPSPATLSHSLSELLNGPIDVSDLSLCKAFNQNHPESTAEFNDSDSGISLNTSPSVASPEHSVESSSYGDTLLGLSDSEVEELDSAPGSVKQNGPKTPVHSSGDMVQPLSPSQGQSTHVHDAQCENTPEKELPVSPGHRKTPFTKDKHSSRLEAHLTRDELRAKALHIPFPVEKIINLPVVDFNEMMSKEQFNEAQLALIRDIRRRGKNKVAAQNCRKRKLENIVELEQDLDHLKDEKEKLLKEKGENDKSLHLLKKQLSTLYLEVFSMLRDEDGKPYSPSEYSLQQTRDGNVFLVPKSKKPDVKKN
Sequence of Keap1/Nrf2 (Q14145 whole entry): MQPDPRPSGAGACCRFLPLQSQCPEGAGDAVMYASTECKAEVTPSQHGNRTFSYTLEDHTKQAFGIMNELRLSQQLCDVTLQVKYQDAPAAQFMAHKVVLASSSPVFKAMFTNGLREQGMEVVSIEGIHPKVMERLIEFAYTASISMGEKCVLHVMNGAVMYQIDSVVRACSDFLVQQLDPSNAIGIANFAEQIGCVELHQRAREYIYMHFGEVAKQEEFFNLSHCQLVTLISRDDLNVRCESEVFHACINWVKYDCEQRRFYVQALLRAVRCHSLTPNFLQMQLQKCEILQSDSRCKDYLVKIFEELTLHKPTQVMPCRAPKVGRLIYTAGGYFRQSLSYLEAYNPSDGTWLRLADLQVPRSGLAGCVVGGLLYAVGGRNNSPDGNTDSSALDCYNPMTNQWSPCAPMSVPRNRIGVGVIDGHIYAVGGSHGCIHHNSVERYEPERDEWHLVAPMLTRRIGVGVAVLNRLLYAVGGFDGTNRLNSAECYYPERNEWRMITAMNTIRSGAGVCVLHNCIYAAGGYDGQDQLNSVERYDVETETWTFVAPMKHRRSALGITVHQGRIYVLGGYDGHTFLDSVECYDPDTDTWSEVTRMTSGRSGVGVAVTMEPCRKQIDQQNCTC

AC50 (Keap1/Nrf2): 17.1 µM (active)
Structure (SMILES): O=c1cc(CN2CCCc3ccccc32)nc2sccn12

IC50 [1]: 6.43 µM (active)
IC50 [2]: 13.2 µM (not active)
IC50 (Cysteine protease ATG4B): 25.3 µM (inactive)
IC50 (Phospholipase A2): 17.7 µM (active)
Structure (SMILES): Cc1ccccc1C(=O)c1cccn1CC(=O)NCCN1CCN(c2cccc(C)c2C)CC1

Structure (SMILES): COc1ccccc1C(NC(C)=O)c1ccc2cccnc2c1O (stereo unspecified)
IC50 (HEK293 [3]): 7.73 µM (active)
IC50 (HEK293 [4]): 7.96 µM (active)
IC50 (Jurkat): 7.09 µM (active)

Structure (SMILES): COCCC(=O)N1CCN(c2ccnc3cc(Cl)ccc23)CC1
AC50 (Candida albicans [5]): 136 µM (active)
AC50 (Candida albicans [6]): > 260 µM (inactive)
AC50 (Candida albicans [7]): 72.5 µM (active)
